Assay results published in patent publication US7659270B2, “Hepatitis C virus inhibitors” (Bristol-Myers Squibb Company, priority 2006, dated 2010).

test system: HCV 1b-377-neo replicon cells; assay: HCV replicon assay (HCV 1b-377-neo replicon cells); type: cell-based, Hepatitis C virus genotype 1b; design: EC50 range against HCV 1b (Range): scale not given here; details: not given
Method in brief: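 HCV genotype 1b (1b-377-neo) replicon cells, run as a validated replicon assay; parallel testing in replicon cells carrying the NS5A Y2065H resistance mutation.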

COC(=O)N[C@H](C(=O)N1CCC[C@H]1c1ncc(-c2ccc(-c3ccc(-c4cnc([C@@H]5CCCN5C(=O)[C@@H](NC(=O)OC)C(C)C)[nH]4)cc3C(=O)O)cc2)[nH]1)C(C)C [Example M114, 4,4′-bis(2-((2S)-1-(N-(methoxycarbonyl)-L-valyl)-2-pyrrolidinyl)-1H-imidazol-5-yl)-2-biphenylcarboxylic acid] was tested, and the “EC50 range against HCV 1b (Range)” value was “>A”.
With COC(=O)N[C@H](C(=O)N1CCC[C@H]1c1ncc(-c2ccc(-c3ccc(-c4cnc([C@@H]5CCCN5C(=O)[C@@H](NC(=O)OC)C(C)C)[nH]4)cc3C(N)=O)cc2)[nH]1)C(C)C [Example M118, methyl((1S)-1-(((2S)-2-(5-(2′-carbamoyl-4′-(2-((2S)-1-((2S)-2-((methoxycarbonyl)amino)-3-methylbutanoyl)-2-pyrrolidinyl)-1H-imidazol-5-yl)-4-biphenylyl)-1H-imidazol-2-yl)-1-pyrrolidinyl)carbonyl)-2-methylpropyl)carbamate] the “EC50 range against HCV 1b (Range)” value was “>A”.

same assay, conditions: Hepatitis C virus, read-out: EC50 range against HCV 1b (Range)

COC(=O)N[C@H](C(=O)N1CCC[C@H]1c1nc(-c2cnc(-c3ccc(-c4cnc([C@@H]5CCCN5C(=O)[C@@H](NC(=O)OC)C(C)C)[nH]4)cc3)nc2)c[nH]1)C(C)C [Example D74, methyl ((1S)-1-(((2S)-2-(5-(2-(4-(2-((2S)-1-((2S)-2-((methoxy-carbonyl)amino)-3-methyl-butanoyl)-2-pyrroli-dinyl)-1H-imidazol-5-yl)phenyl)-5-pyrimi-dinyl)-1H-imida-zol-2-yl)-1-pyrroli-dinyl)carbon-yl)-2-methylpro-pyl)carba-mate] and COC(=O)N[C@H](C(=O)N1CCC[C@H]1c1ncc(-c2cnc(-c3ccc(-c4[nH]c([C@@H]5CCCN5C(=O)[C@@H](NC(=O)OC)C(C)C)nc4C(F)(F)F)cc3)nc2)[nH]1)C(C)C [Example J48, methyl ((1S)-1-(((2S)-2-(5-(2-(4-(2-((2S)-1-((2S)-2-((methoxy-carbonyl)amino)-3-methyl-butanoyl)-2-pyrrolidinyl)-4-(trifluoromethyl)-1H-imidazol-5-yl)phenyl)-5-pyrimidinyl)-1H-imidazol-2-yl)-1-pyrroli-dinyl)carbon-yl)-2-methylpro-pyl)carba-mate] fall in the same range of EC50: 0.01 to 0.999 nM for the first, 0.01 to 0.999 nM for the second.

COC(=O)N[C@H](C(=O)N1CCC[C@H]1c1nc(-c2cnc(-c3ccc(-c4cnc([C@@H]5CCCN5C(=O)[C@@H](NC(=O)OC)C5CC5)[nH]4)cc3)nc2)c[nH]1)C1CC1 [Example D75, methyl ((1S)-1-cyclopropyl-2-((2S)-2-(5-(2-(4-(2-((2S)-1-((2S)-2-cyclopropyl-2-((methoxy-carbonyl)amino)ace-tyl)-2-pyrroli-dinyl)-1H-imidazol-5-yl)phenyl)-5-pyrimi-dinyl)-1H-imida-zol-2-yl)-1-pyrroli-dinyl)-2-oxoeth-yl)carbamate] and COC(=O)N[C@H](C(=O)N1CCC[C@H]1c1ncc(-c2cnc(-c3ccc(-c4[nH]c([C@@H]5CCCN5C(=O)[C@@H](NC(=O)OC)C5CC5)nc4C(F)(F)F)cc3)nc2)[nH]1)C1CC1 [Example J49, methyl ((1S)-1-cyclopropyl-2-((2S)-2-(5-(4-(5-(2-((2S)-1-((2S)-2-cyclopropyl-2-((methoxy-carbonyl)amino)acetyl)-2-pyrrolidinyl)-1H-imidazol-5-yl)-2-pyrimi-dinyl)phenyl)-4-(trifluoromethyl)-1H-imida-zol-2-yl)-1-pyrrolidinyl)-2-oxoeth-yl)carbamate] fall in the same range of EC50: 0.01 to 0.999 nM for the first, 0.01 to 0.999 nM for the second.

CCN(CC)[C@@H](C(=O)N1CCC[C@H]1c1ncc(-c2ccc(-c3ncc(-c4c[nH]c([C@@H]5CCCN5C(=O)[C@@H](NC(=O)OC)C(C)C)n4)cn3)cc2)[nH]1)c1ccccc1 [Example D76, methyl ((1S)-1-(((2S)-2-(5-(2-(4-(2-((2S)-1-((2R)-2-(diethyl-amino)-2-phenyl-acetyl)-2-pyrroli-dinyl)-1H-imidazol-5-yl)phenyl)-5-pyrimi-dinyl)-1H-imida-zol-2-yl)-1-pyrroli-dinyl)carbon-yl)-2-methylpro-pyl)carba-mate] and CCN(CC)[C@@H](C(=O)N1CCC[C@H]1c1ncc(-c2ccc(-c3ncc(-c4c[nH]c([C@@H]5CCCN5C(=O)[C@H](C)NC(=O)OC)n4)cn3)cc2)[nH]1)c1ccccc1 [Example D77, methyl ((1S)-2-((2S)-2-(5-(2-(4-(2-((2S)-1-((2R)-2-(diethyl-amino)-2-phenyl-acetyl)-2-pyrroli-dinyl)-1H-imidazol-5-yl)phenyl)-5-pyrimi-dinyl)-1H-imida-zol-2-yl)-1-pyrrolidinyl)-1-methyl-2-oxoeth-yl)carbamate] fall in the same range of EC50: 0.01 to 0.999 nM for the first, 0.01 to 0.999 nM for the second.

First: COC(=O)N[C@H](C(=O)N1CCCC1c1ncc(-c2cc(C)c(-c3c(C)cc(-c4cnc([C@@H]5CCCN5C(=O)[C@@H](NC(=O)OC)C(C)C)[nH]4)cc3C)c(C)c2)[nH]1)C(C)C (stereo partly shown) [Example F71]
Second: COC(=O)N[C@H](C(=O)N1CCC[C@H]1c1ncc(-c2ccc(-c3ccc(-c4cnc([C@@H]5CCCN5C(=O)[C@@H](NC(=O)OC)C(C)C)[nH]4)cc3CO)cc2)[nH]1)C(C)C [Example M119, methyl((1S)-1-(((2S)-2-(5-(2-(hydroxymethyl)-4′-(2-((2S)-1-((2S)-2-((methoxycarbonyl)amino)-3-methylbutanoyl)-2-pyrrolidinyl)-1H-imidazol-5-yl)-4-biphenylyl)-1H-imidazol-2-yl)-1-pyrrolidinyl)carbonyl)-2-methylpropyl)carbamate]
The EC50 of the first is lower: 0.01 to 0.999 nM for the first, 100 to 999 nM for the second. The first is the more potent here.

COC(=O)N[C@@H](C)C(=O)N(C)[C@@H](C)c1ncc(-c2ccc(-c3ccc(-c4[nH]c([C@@H]5CCCN5C(=O)[C@H](C)NC(=O)OC)nc4C(F)(F)F)cc3)cc2)[nH]1 [Example J42.a, methyl ((1S)-2-((2S)-2-(5-(4′-(2-((1S)-1-((N-(methoxy-carbonyl)-L-alanyl)(meth-yl)ami-no)ethyl)-1H-imidazol-5-yl)-4-biphenylyl)-4-(trifluoromethyl)-1H-imida-zol-2-yl)-1-pyrrolidinyl)-1-methyl-2-oxoeth-yl)carbamate] and COC(=O)N[C@@H](C)C(=O)N1CCC[C@H]1c1ncc(-c2cnc(-c3ccc(-c4[nH]c([C@@H]5CCCN5C(=O)[C@H](C)NC(=O)OC)nc4C(F)(F)F)cc3)nc2)[nH]1 [Example J50, methyl ((1S)-2-((2S)-2-(5-(4-(5-(2-((2S)-1-(N-(methoxy-carbonyl)-L-alanyl)-2-pyrrolidinyl)-1H-imidazol-5-yl)-2-pyrimi-dinyl)phenyl)-4-(trifluoromethyl)-1H-imida-zol-2-yl)-1-pyrrolidinyl)-1-methyl-2-oxoeth-yl)carbamate] fall in the same range of EC50: 0.01 to 0.999 nM for the first, 0.01 to 0.999 nM for the second.

First: COC(=O)NC(C(=O)N1CCC[C@H]1c1ncc(-c2cnc(-c3ccc(-c4[nH]c([C@@H]5CCCN5C(=O)C(NC(=O)OC)c5ccccc5)nc4C(F)(F)F)cc3)nc2)[nH]1)c1ccccc1 (stereo partly drawn) [Example J46, methyl ((1R)-2-((2S)-2-(5-(4-(5-(2-((2S)-1-((2R)-2-((methoxy-carbonyl)amino)-2-phenylacetyl)-2-pyrrolidinyl)-1H-imidazol-5-yl)-2-pyrimi-dinyl)phenyl)-4-(trifluoromethyl)-1H-imida-zol-2-yl)-1-pyrrolidinyl)-2-oxo-1-phenyleth-yl)carbamate]
Second: COC(=O)N[C@@H](C(=O)N1CCC[C@H]1c1ncc(-c2ccc(-c3ccc(-c4cnc([C@@H]5CCCN5C(=O)[C@H](NC(=O)OC)c5ccccc5)[nH]4)cc3CN(C)C)cc2)[nH]1)c1ccccc1 [Example M121, dimethyl((2-((dimethylamino)methyl)-4,4′-biphenyldiyl)bis(1H-imidazole-5,2-diyl(2S)-2,1-pyrrolidinediyl((1R)-2-oxo-1-phenyl-2,1-ethanediyl)))biscarbamate]
The EC50 of the first is lower: 0.01 to 0.999 nM for the first, 100 to 999 nM for the second.

First: CCN(CC)[C@@H](C(=O)N1CCC[C@H]1c1ncc(-c2cnc(-c3ccc(-c4[nH]c([C@@H]5CCCN5C(=O)[C@@H](c5ccccc5)N(CC)CC)nc4C(F)(F)F)cc3)nc2)[nH]1)c1ccccc1 [Example J47, (1R)-2-((2S)-2-(5-(4-(5-(2-((2S)-1-((2R)-2-(diethylamino)-2-phenylacetyl)-2-pyrrolidinyl)-1H-imidazol-5-yl)-2-pyrimi-dinyl)phenyl)-4-(trifluoromethyl)-1H-imida-zol-2-yl)-1-pyrrolidinyl)-N,N-dieth-yl-2-oxo-1-phenylethanamine]
Second: CCN(CC)[C@H](C)C(=O)N1CCC[C@H]1c1ncc(-c2cnc(-c3ccc(-c4[nH]c([C@@H]5CCCN5C(=O)[C@H](C)N(CC)CC)nc4C(F)(F)F)cc3)nc2)[nH]1 [Example J51, (2R)-1-((2S)-2-(5-(4-(5-(2-((2S)-1-((2R)-2-(diethyl-amino)prop-anoyl)-2-pyrrolidinyl)-1H-imidazol-5-yl)-2-pyrimi-dinyl)phenyl)-4-(trifluoromethyl)-1H-imida-zol-2-yl)-1-pyrrolidinyl)-N,N-dieth-yl-1-oxo-2-propanamine]
The EC50 of the first is lower: 0.01 to 0.999 nM for the first, 1 to 99 nM for the second.

First: COC(=O)N[C@H](C(=O)N1CCC[C@H]1c1ncc(-c2ccc(-c3ccc(-c4cnc([C@@H]5CCCN5C(=O)[C@@H](NC(=O)OC)C(C)C)[nH]4)cc3CN(C)C)cc2)[nH]1)C(C)C [Example M120, methyl((1S)-1-(((2S)-2-(5-(2-((dimethylamino)methyl)-4′-(2-((2S)-1-((2S)-2-((methoxycarbonyl)amino)-3-methylbutanoyl)-2-pyrrolidinyl)-1H-imidazol-5-yl)-4-biphenylyl)-1H-imidazol-2-yl)-1-pyrrolidinyl)carbonyl)-2-methylpropyl)carbamate]
Second: COC(=O)N[C@H](C(=O)N1[C@H](c2ncc(-c3ccc(-c4ccc(-c5cnc([C@@H]6C[C@@H]7C[C@@H]7N6C(=O)[C@@H](NC(=O)OC)C(C)C)[nH]5)cc4)cc3)[nH]2)C[C@@H]2C[C@@H]21)C(C)C [Example M122, methyl((1S)-1-(((1S,3S,5S)-3-(5-(4′-(2-((1S,3S,5S)-2-((2S)-2-((methoxycarbonyl)amino)-3-methylbutanoyl)-2-azabicyclo[3.1.0]hex-3-yl)-1H-imidazol-5-yl)-4-biphenylyl)-1H-imidazol-2-yl)-2-azabicyclo[3.1.0]hex-2-yl)carbonyl)-2-methylpropyl)carbamate]
The EC50 of the first is higher: 100 to 999 nM for the first, 1 to 99 nM for the second.

same assay, conditions: read-out: EC50 range against HCV 1b (Range)

Compound CNCC(=O)N1CCC[C@H]1c1ncc(-c2ccc(-c3ccc(-c4cnc([C@@H]5CCCN5C(=O)[C@@H](NC(=O)OC)C(C)C)[nH]4)cc3)cc2)[nH]1 [LS20] has an EC50 of 0.01 to 0.999 nM.
